Assay results from US6642217B2, “Triterpenes having human antifungal and antiyeast activity” (Naturtek, LLC, priority 2000, dated 2003).

Experiments:
Microsporum canis [1] = assay: Agar dilution method, growth on Sabouraud dextrose agar slants; format: cell-based; set-up: key: +++: Maximum Fungal Growth; ++: Moderate Fungal Growth; +: Minimum Fungal Growth; +/−: Very little Fungal Growth; −: No Fungal Growth; conditions: 12th day after inoculation
Protocol: (§1) Agar dilution method. Sabouraud Dextrose Agar (Difco Laboratories, Michigan) was prepared according to the manufacturer's instructions. Five ml was dispensed in a 100×25 mm tube and autoclaved. To each tube containing 5.0 ml of liquid agar at 45° C., 0.5, 0.25, 0.12, or 0.063 ml of a DMSO solution of the compound was added to give the final indicated concentrations in Table 2. The agar was then solidified in slants. Fungal cultures were inoculated. The slants were incubated at 25-28° C. for 10-12 days, and the growth of the fungus was recorded every second day.

Microsporum gypseum = assay: as above; format: cell-based; set-up: key: +++: Maximum Fungal Growth; ++: Moderate Fungal Growth; +: Minimum Fungal Growth; +/−: Very little Fungal Growth; −: No Fungal Growth; conditions: 12th day after inoculation
Protocol: as §1

Pityrosporum ovale [2] = assay: as above; format: cell-based; set-up: key: +++: Maximum Fungal Growth; ++: Moderate Fungal Growth; +: Minimum Fungal Growth; +/−: Very little Fungal Growth; −: No Fungal Growth; conditions: 12th day after inoculation
Protocol: as §1

Trichophyton rubrum [3] = assay: as above; format: cell-based; set-up: key: +++: Maximum Fungal Growth; ++: Moderate Fungal Growth; +: Minimum Fungal Growth; +/−: Very little Fungal Growth; −: No Fungal Growth; conditions: 12th day after inoculation
Protocol: as §1

Microsporum audouinni [4] = assay: as above; format: cell-based, Microsporum audouinii; set-up: key: +++: Maximum Fungal Growth; ++: Moderate Fungal Growth; +: Minimum Fungal Growth; +/−: Very little Fungal Growth; −: No Fungal Growth; conditions: 12th day after inoculation
Protocol: as §1

Trichophyton tonsuran = assay: as above; format: cell-based, Trichophyton tonsurans; set-up: key: +++: Maximum Fungal Growth; ++: Moderate Fungal Growth; +: Minimum Fungal Growth; +/−: Very little Fungal Growth; −: No Fungal Growth; conditions: 12th day after inoculation
Protocol: as §1

[5] = system: Trichophyton mentagrophyte; assay: as above; format: cell-based, Trichophyton mentagrophytes; set-up: key to Fungal growth: +++: Maximum Fungal Growth; ++: Moderate Fungal Growth; +: Minimum Fungal Growth; +/−: Very little Fungal Growth; −: No Fungal Growth; conditions: 12th day after inoculation
Protocol: as §1

Epidermophyton floccosum [6] = assay: as above; format: cell-based; set-up: key to Fungal growth: +++: Maximum Fungal Growth; ++: Moderate Fungal Growth; +: Minimum Fungal Growth; +/−: Very little Fungal Growth; −: No Fungal Growth; conditions: 12th day after inoculation
Protocol: as §1

Microsporum audouinni [7] = assay: Direct addition method, solid compound in Sabouraud dextrose agar; format: cell-based, Microsporum audouinii; set-up: key to Fungal growth: +++: Maximum Fungal Growth; ++: Moderate Fungal Growth; +: Minimum Fungal Growth; +/−: Very little Fungal Growth; −: No Fungal Growth; conditions: 4 mg/mL of agar; 12th day after inoculation
Protocol: (§2) Direct addition method. Sabouraud dextrose agar was prepared according to the manufacturer's instructions and 5.0 ml was dispensed in each 100×25 mm tube. The tubes were autoclaved. To each tube containing 5.0 ml of liquid agar at 45° C., 20 mg of solid test compound was added, to give a final concentration of 4 mg/ml. The agar was solidified in slants. The fungal cultures were then innoculated. The slants were incubated at 25-28 ° C. for 10-12 days, and the growth of the fungus was recorded every second day. The results in Table 2 indicate growth at the 12th day of inoculation.

Pityrosporum ovale [8] = assay: Direct addition into the Pityrosporum agar; format: cell-based; set-up: key to Pityrosporum ovale growth: +++: Maximum Growth; ++: Moderate Growth; +: Minimum Growth; +/−: Very Little Growth; −: No Growth; conditions: 4 mg/ml in the agar; 18 hours after inoculation
Protocol: as §2, with “The slants were incubated at 25-28 ° C. for 10-12 days, and the growth of the fungus was recorded every second day. The results in Table 2 indicate growth at the 12th day of inoculation.” left out

Microsporum audouinii = assay: Summary of anti-fungal assays (direct addition, agar dilution, liquid culture); format: cell-based; conditions: stated in words (Tables 1a/1b, text to Table 5)
Protocol: (§3) This example summarizes the results of various other assays of the anti-fungal activity of betulin derivatives. Table 5 summarizes results using different assay methods—direct addition, agar dilution, and direct addition to liquid culture, as disclosed in the previous three Examples. In some cases, only one type of assay was done with a compound. In other cases, the compound was tested by multiple assays.

Trichophyton tonsurans = assay: as above; format: cell-based; conditions: stated in words (Tables 1a/1b, text to Table 5)
Protocol: as §3

Epidermophyton floccosum [9] = assay: Direct addition method, solid compound in Sabouraud dextrose agar; format: cell-based; set-up: key: +++: Maximum Fungal Growth; ++: Moderate Fungal Growth; +: Minimum Fungal Growth; +/−: Very little Fungal Growth; −: No Fungal Growth; conditions: 4 mg/mL of agar; 12th day after inoculation
Protocol: as §2

Microsporum canis [10] = assay: as above; format: cell-based; set-up: key: +++: Maximum Fungal Growth; ++: Moderate Fungal Growth; +: Minimum Fungal Growth; +/−: Very little Fungal Growth; −: No Fungal Growth; conditions: 4 mg/mL of agar; 12th day after inoculation
Protocol: as §2

Pityrosporum ovale [11] = assay: as above; format: cell-based; set-up: key: +++: Maximum Fungal Growth; ++: Moderate Fungal Growth; +: Minimum Fungal Growth; +/−: Very little Fungal Growth; −: No Fungal Growth; conditions: 4 mg/mL of agar; 12th day after inoculation
Protocol: as §2

Trichophyton rubrum [12] = assay: as above; format: cell-based; set-up: key: +++: Maximum Fungal Growth; ++: Moderate Fungal Growth; +: Minimum Fungal Growth; +/−: Very little Fungal Growth; −: No Fungal Growth; conditions: 4 mg/mL of agar; 12th day after inoculation
Protocol: as §2

CC1(C)CCC23CCC4(C)C(CCC5C6(C)CCC(OC(=O)CCCC(=O)O)C(C)(C)C6CCC54C)C2C1OC3 (stereo not shown) [Allobetulin-3-glutarate]
Fungal growth (Microsporum canis [1]; 12.5 μg/ml): + | Fungal growth (Microsporum canis [1]; 25 μg/ml): +/− | Fungal growth (Microsporum canis [1]; 50 μg/ml): − | Fungal growth (Microsporum canis [1]; 100 μg/ml): − | Fungal growth (Microsporum gypseum; 12.5 μg/ml): +++ | Fungal growth (Microsporum gypseum; 25 μg/ml): ++ | Fungal growth (Microsporum gypseum; 50 μg/ml): ++ | Fungal growth (Microsporum gypseum; 100 μg/ml): − | Fungal growth (Pityrosporum ovale [2]; 12.5 μg/ml): +++ | Fungal growth (Pityrosporum ovale [2]; 25 μg/ml): +++ | Fungal growth (Pityrosporum ovale [2]; 50 μg/ml): +| | Fungal growth (Pityrosporum ovale [2]; 100 μg/ml): − | Fungal growth (Trichophyton rubrum [3]; 12.5 μg/ml): ++ | Fungal growth (Trichophyton rubrum [3]; 25 μg/ml): ++ | Fungal growth (Trichophyton rubrum [3]; 50 μg/ml): + | Fungal growth (Trichophyton rubrum [3]; 100 μg/ml): − | Fungal growth (Microsporum audouinni [4]; 12.5 μg/ml): + | Fungal growth (Microsporum audouinni [4]; 25 μg/ml): +/− | Fungal growth (Microsporum audouinni [4]; 50 μg/ml): − | Fungal growth (Microsporum audouinni [4]; 100 μg/ml): − | Fungal growth (Trichophyton tonsuran; 12.5 μg/ml): + | Fungal growth (Trichophyton tonsuran; 25 μg/ml): +/− | Fungal growth (Trichophyton tonsuran; 50 μg/ml): − | Fungal growth (Trichophyton tonsuran; 100 μg/ml): − | Fungal growth ([5]; 12.5 μg/ml): ++ | Fungal growth ([5]; 25 μg/ml): + | Fungal growth ([5]; 50 μg/ml): + | Fungal growth ([5]; 100 μg/ml): − | Fungal growth (Epidermophyton floccosum [6]; 12.5 μg/ml): ++ | Fungal growth (Epidermophyton floccosum [6]; 25 μg/ml): + | Fungal growth (Epidermophyton floccosum [6]; 50 μg/ml): + | Fungal growth (Epidermophyton floccosum [6]; 100 μg/ml): − | Fungal growth (Microsporum audouinni [7]): + | Pityrosporum ovale growth (Pityrosporum ovale [8]): + | Active against Microsporum audouinii (Microsporum audouinii): Microsporum audouinii | Active against Trichophyton tonsurans (Trichophyton tonsurans): Trichophyton tonsurans | Fungal growth (Epidermophyton floccosum [9]): − | Fungal growth (Microsporum canis [10]): + | Fungal growth (Pityrosporum ovale [11]): − | Fungal growth (Trichophyton rubrum [12]): +

CC1(C)CCC23CC[C@@]4(C)C(CCC5[C@@]6(C)CCC(OC(=O)CCC(=O)O)C(C)(C)C6CC[C@]54C)C2C1OC3 (stereo partly shown) [Allobetulin-3-succinate]
Fungal growth (Microsporum canis [1]; 62.5 μg/ml): ++ | Fungal growth (Microsporum canis [1]; 125 μg/ml): ++ | Fungal growth (Microsporum canis [1]; 250 μg/ml): − | Fungal growth (Microsporum canis [1]; 500 μg/ml): − | Fungal growth (Microsporum gypseum; 62.5 μg/ml): +++ | Fungal growth (Microsporum gypseum; 125 μg/ml): ++ | Fungal growth (Microsporum gypseum; 250 μg/ml): + | Fungal growth (Microsporum gypseum; 500 μg/ml): − | Fungal growth (Pityrosporum ovale [2]; 62.5 μg/ml): +++ | Fungal growth (Pityrosporum ovale [2]; 125 μg/ml): +++ | Fungal growth (Pityrosporum ovale [2]; 250 μg/ml): +++ | Fungal growth (Pityrosporum ovale [2]; 500 μg/ml): + | Fungal growth (Trichophyton rubrum [3]; 62.5 μg/ml): ++ | Fungal growth (Trichophyton rubrum [3]; 125 μg/ml): ++ | Fungal growth (Trichophyton rubrum [3]; 250 μg/ml): − | Fungal growth (Trichophyton rubrum [3]; 500 μg/ml): − | Fungal growth (Microsporum audouinni [4]; 62.5 μg/ml): ++ | Fungal growth (Microsporum audouinni [4]; 125 μg/ml): ++ | Fungal growth (Microsporum audouinni [4]; 250 μg/ml): − | Fungal growth (Microsporum audouinni [4]; 500 μg/ml): − | Fungal growth (Trichophyton tonsuran; 62.5 μg/ml): ++ | Fungal growth (Trichophyton tonsuran; 125 μg/ml): ++ | Fungal growth (Trichophyton tonsuran; 250 μg/ml): + | Fungal growth (Trichophyton tonsuran; 500 μg/ml): − | Fungal growth ([5]; 62.5 μg/ml): ++ | Fungal growth ([5]; 125 μg/ml): + | Fungal growth ([5]; 250 μg/ml): +/− | Fungal growth ([5]; 500 μg/ml): − | Fungal growth (Epidermophyton floccosum [6]; 62.5 μg/ml): ++ | Fungal growth (Epidermophyton floccosum [6]; 125 μg/ml): ++ | Fungal growth (Epidermophyton floccosum [6]; 250 μg/ml): + | Fungal growth (Epidermophyton floccosum [6]; 500 μg/ml): − | Fungal growth (Microsporum audouinni [7]): + | Pityrosporum ovale growth (Pityrosporum ovale [8]): + | Active against Microsporum audouinii (Microsporum audouinii): Microsporum audouinii | Fungal growth (Epidermophyton floccosum [9]): − | Fungal growth (Microsporum canis [10]): + | Fungal growth (Pityrosporum ovale [11]): − | Fungal growth (Trichophyton rubrum [12]): +
